Reference: US10695322B2 (priority 2016, dated 2020)
“Also recorded” adds a separate entry of the source.

What was measured:
LdtMt2 [1] = target: T1, LdtMt2 (Mycobacterium tuberculosis, UniProt I6Y9J2); format: binding, M. tuberculosis
LdtMt1 = LdtMt1 (Mycobacterium tuberculosis, UniProt O53638); format: binding, M. tuberculosis
LdtMt2 [2] = target: T1, LdtMt2; assay: biochemical; design: species or system M. tuberculosis; details: read-out: kinact/Kapp ratio
[3] = system: LdtMt2 variants Y318F, H336N, H352N and C354S; format: binding, M. tuberculosis
[4] = system: mutant LdtMt2 (Y318A, Y318F, H336N, H352A, H352N, C354A, C354S); format: binding, M. tuberculosis

Chain of LdtMt1 (O53638 32-251 limits assumed): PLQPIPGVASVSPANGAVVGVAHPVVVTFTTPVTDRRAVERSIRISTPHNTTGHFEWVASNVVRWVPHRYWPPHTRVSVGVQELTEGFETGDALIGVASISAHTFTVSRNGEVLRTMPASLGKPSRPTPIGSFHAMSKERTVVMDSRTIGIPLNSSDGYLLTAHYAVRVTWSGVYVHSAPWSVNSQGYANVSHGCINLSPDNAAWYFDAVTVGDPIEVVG
T1 sequence (I6Y9J2 56-408 limits assumed): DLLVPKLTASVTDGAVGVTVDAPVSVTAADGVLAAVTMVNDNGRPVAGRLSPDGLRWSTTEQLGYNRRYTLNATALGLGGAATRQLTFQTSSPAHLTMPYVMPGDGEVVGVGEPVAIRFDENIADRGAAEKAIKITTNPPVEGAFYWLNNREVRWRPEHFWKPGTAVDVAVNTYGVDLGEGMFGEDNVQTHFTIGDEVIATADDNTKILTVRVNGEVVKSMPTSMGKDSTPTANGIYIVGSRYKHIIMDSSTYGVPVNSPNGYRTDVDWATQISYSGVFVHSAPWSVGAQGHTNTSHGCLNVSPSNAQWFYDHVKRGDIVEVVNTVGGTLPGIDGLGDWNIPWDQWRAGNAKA

| Structure (SMILES) | reaction and covalent adduct formation (LdtMt2 [1]) | reaction and covalent adduct formation (LdtMt1) | kinact/KI (LdtMt2 [2]) [M⁻¹ s⁻¹] | binding affinity [3] | adduct formation [4] |
| --- | --- | --- | --- | --- | --- |
| COC(=O)CSC1=C(C(=O)[O-])N2C(=O)[C@H]([C@@H](C)O)[C@H]2[C@H]1C.[Na+] [T205, sodium (4R,5S,6S)-6-((R)-1-hydroxyethyl)-3-((2-methoxy-2-oxoethyl)thio)-4-methyl-7-oxo-1-azabicyclo[3.2.0]hept-2-ene-2 carboxylate] | reacted and formed covalent adducts | reacted and formed covalent adducts | – | – | – |
| C[C@@H](O)[C@H]1C(=O)N2C(C(=O)O)=C(SCC(=O)OC3CCCCC3)[C@H](C)[C@H]12 [T208] | reacted and formed covalent adducts | reacted and formed covalent adducts | 9330 | – | – |
| C[C@@H](O)[C@H]1C(=O)N2C(C(=O)O)=C([C@H]3CCCO3)S[C@H]12 [faropenem] | – | – | – | either a complete loss of or no appreciable binding affinities | same adducts were detected; also recorded: failed to produce any covalent adduct |
| CCCOC(=O)CSC1=C(C(=O)O)N2C(=O)[C@H]([C@@H](C)O)[C@H]2[C@H]1C [T206] | reacted and formed covalent adducts | reacted and formed covalent adducts | – | – | – |
| C[C@@H](O)[C@H]1C(=O)N2C(C(=O)[O-])=C(SC3Cn4cnc[n+]4C3)[C@H](C)[C@H]12 (stereo partly drawn) [biapenem] | – | – | – | – | no adducts could be detected |
| C[C@@H](O)[C@H]1C(=O)N2C(C(=O)O)=C(SC3CN(C4=NCCS4)C3)[C@H](C)[C@H]12 [tebipenem] | – | – | – | either a complete loss of or no appreciable binding affinities | same adducts were detected; also recorded: failed to produce any covalent adduct |
| CSC1=C(C(=O)O)N2C(=O)[C@H]([C@@H](C)O)[C@H]2[C@H]1C [T210] | reacted and formed covalent adducts | reacted and formed covalent adducts | – | poor binding affinities | – |
